For 20 compounds, EC50 results are on record in patent US20260083723A1, “THERAPEUTIC AGENT OR PROPHYLACTIC AGENT FOR AMYOTROPHIC LATERAL SCLEROSIS” (Toray Industries, Inc., priority 2022, published 2026).

Counter-ions that a name gives are not always drawn.

What is called EC50 is the midpoint of the concentration-response curve. High values mean lower potency in that assay, low ones higher potency in that assay.

A short description of this assay: In vitro radical scavenging action (DPPH method). The note with it: 1.2-100 μmol/L, 30 minutes at room temperature, absorbance at 517 nm. The method, then:
The radical scavenging action of a test compound can be evaluated using an in vitro test and, for example, by a method (Antioxidants, 2019, vol. 258) using a stable radical, 1,1-diphenyl-2-picrylhydrazil (DPPH).
Radical scavenging action was evaluated using the DPPH method in the compound of Comparative Example 1, which is a tetrahydroquinoxaline derivative, and in the tetrahydroquinoline derivative (I) or a pharmaceutically acceptable salt thereof. The DPPH method was performed using an antioxidant capacity measurement kit (Dojindo Laboratories).
A test compound was dissolved in DMSO, and the resulting solution was then mixed with an assay buffer and a DPPH solution, which are included in the kit, to a total volume of 200 μL to obtain a final concentration of 10% DMSO, and the reaction was allowed to proceed. Wells added with […] ferrostatin-1, a radical scavenger, were grouped as “control,” and wells not added with test compound were grouped as “background”. The test compound was serially diluted 3-fold starting from a maximum concentration of 100 μmol/L, and the diluted test compound (1.2, 3.7, 11.1, 33.3, or 100 μmol/L) was added and allowed to react at room temperature. Thirty minutes after the reaction, the absorbance at 517 nm was measured, and the average absorbance value was calculated (N=2). The radical scavenging action of the test compound (hereinafter referred to as radical scavenging rate, %) was calculated based on Equation 2. The EC50 value of the test compound was calculated from the radical scavenging rate.
A note “no detection of radical scavenging action (N.D.),” is given to compounds with a EC50 of >100 μmol/L.
In general terms: The DPPH test is a chemical assay of radical scavenging.
On to `NS(=O)(=O)c1ccc(C2CCc3cc(Cl)ccc3N2)cc1` (centres unmarked) [Example 117, 4-(6-chloro-1,2,3,4-tetrahydroquinolin-2-yl)benzenesulfonamide], for which the concentration for a half-maximal effect (EC50) is over 100 µM.

With `CS(=O)(=O)Nc1ccc(C2CCc3ccccc3N2)cc1` (centres unmarked) [Example 136, N-(4-(1,2,3,4-tetrahydroquinolin-2-yl)phenyl)methanesulfonamide], the 50% effective concentration (EC50) was over 100 µM.

As to `O=C(Cc1ccc2c(c1)CCC(c1ccccc1)N2)N1CC(F)(F)C1` (centres unmarked) [Example 161, 1-(3,3-difluoroazetidin-1-yl)-2-(2-phenyl-1,2,3,4-tetrahydroquinolin-6-yl)ethan-1-one], the EC50 is over 100 µM.

As for `NC(=O)Cc1ccc2c(c1)CCC(c1ccccc1)N2` (centres unmarked) [Example 60, 2-(2-phenyl-1,2,3,4-tetrahydroquinolin-6-yl)acetamide], the concentration for a half-maximal effect (EC50) is over 100 µM.

In turn, `O=C(Cc1ccc2c(c1)CCC(c1ccccc1)N2)N1CC(O)C1` (centres unmarked) [Example 144, 1-(3-hydroxyazetidin-1-yl)-2-(2-phenyl-1,2,3,4-tetrahydroquinolin-6-yl)ethan-1-one hydrochloride] had an EC50 of over 100 µM.

In turn, `NC(=O)c1ccc(C2CCc3cc(Cl)ccc3N2)cc1` (centres unmarked) [Example 122, 4-(6-chloro-1,2,3,4-tetrahydroquinolin-2-yl)benzamide] showed an EC50 of over 100 µM.

In the case of `NC(=O)c1ccc(C2CCc3c(F)cccc3N2)cc1` (centres unmarked) [Example 137, 4-(5-fluoro-1,2,3,4-tetrahydroquinolin-2-yl)benzamide], the concentration giving a half-maximal response (EC50) was over 100 µM.

With `O=C(Cc1ccc2c(c1)CCC(c1ccccc1)N2)NC1CCC1` (centres unmarked) [Example 155, N-cyclobutyl-2-(2-phenyl-1,2,3,4-tetrahydroquinolin-6-yl)acetamide], the EC50 is over 100 µM.

For `Fc1cc2c(cc1F)NC(c1ccccc1)CC2` (centres unmarked) [Example 85, 6,7-difluoro-2-phenyl-1,2,3,4-tetrahydroquinoline], the EC50 is over 100 µM.

As to `N#Cc1ccc(C2CCc3ccccc3N2)cc1` (centres unmarked) [Example 35, 4-(1,2,3,4-tetrahydroquinolin-2-yl)benzonitrile], the EC50 is over 100 µM.

On to `NC(=O)c1ccc(C2CCc3ccccc3N2)cc1` (centres unmarked) [Example 36, 4-(1,2,3,4-tetrahydroquinolin-2-yl)benzamide], for which the EC50 is over 100 µM.

The compound `NS(=O)(=O)c1ccc(C2CCc3cc(Cl)ccc3N2)cc1` (centres unmarked) [Example 116, 4-(6-chloro-1,2,3,4-tetrahydroquinolin-2-yl)benzenesulfonamide] had an EC50 of over 100 µM.

The compound `NC(=O)c1ccc(C2CCc3cc(Cl)ccc3N2)cc1` (centres unmarked) [Example 131, 4-(6-chloro-1,2,3,4-tetrahydroquinolin-2-yl)benzamide] yielded an EC50 of over 100 µM.

Regarding `NS(=O)(=O)c1ccc(C2CCc3cc(F)ccc3N2)cc1` (centres unmarked) [Example 107, 4-(6-fluoro-1,2,3,4-tetrahydroquinolin-2-yl)benzenesulfonamide], the concentration for a half-maximal effect (EC50) is over 100 µM.

Consider `Cc1ccc2c(c1)NC(c1ccc(S(N)(=O)=O)cc1)CC2` (centres unmarked) [Example 105, 4-(7-methyl-1,2,3,4-tetrahydroquinolin-2-yl)benzenesulfonamide], for which the 50% effective concentration (EC50) is over 100 µM.

Turning to `c1ccc([C@@H]2CCc3ccccc3N2)cc1` [Example 3, (S)-2-phenyl-1,2,3,4-tetrahydroquinoline], the concentration for a half-maximal effect (EC50) was over 100 µM.

Compound `Cc1ccc2c(c1)NC(c1ccc(C(N)=O)cc1)CC2` (centres unmarked) [Example 106, 4-(7-methyl-1,2,3,4-tetrahydroquinolin-2-yl)benzamide] yielded an EC50 of over 100 µM.

As for `NS(=O)(=O)c1ccc(C2CCc3cc(Cl)ccc3N2)cc1` (centres unmarked) [Example 115, 4-(6-chloro-1,2,3,4-tetrahydroquinolin-2-yl)benzenesulfonamide], the EC50 was over 100 µM.

Take `Cc1ccc2c(c1)CCC(c1ccc(S(N)(=O)=O)cc1)N2` (centres unmarked) [Example 120, 4-(6-methyl-1,2,3,4-tetrahydroquinolin-2-yl)benzenesulfonamide]: the EC50 is over 100 µM.

For `NC(=O)c1ccc(C2CCc3ccccc3N2)cc1` (centres unmarked) [Example 38, 4-(1,2,3,4-tetrahydroquinolin-2-yl)benzamide], the 50% effective concentration (EC50) was over 100 µM.
